Reference: the NIST ThermoML archive (doi:10.1021/je100598x)

Assay: cn = amount concentration of the nth substance listed, in mol/dm3
Details: 101 kPa, Liquid, Direct current cell with electrodes

CCCCCCCCCCCC[N+](CC)(CC)CC.[Br-] [dodecyltriethylammonium bromide] + O
electrical conductivity [S/m]
Details	288.15 K	293.15 K	298.15 K	303.15 K	308.15 K	313.15 K	318.15 K
c1 = 0.001316	0.0105	0.0119	0.0132	0.0146	0.01605	0.0176	0.019
c1 = 0.002597	0.02	0.0226	0.0252	0.028	0.0306	0.0335	0.0363
c1 = 0.003846	0.0289	0.0327	0.0365	0.0406	0.0443	0.0486	0.0526
c1 = 0.005063	0.0374	0.0423	0.0473	0.0526	0.0573	0.0631	0.0682
c1 = 0.00625	0.0456	0.0516	0.0576	0.0641	0.0698	0.0768	0.0831
c1 = 0.007407	0.053	0.0604	0.0676	0.0752	0.0819	0.09	0.0976
c1 = 0.008536	0.0609	0.0689	0.0771	0.0859	0.0934	0.1028	0.1114
c1 = 0.009638	0.0681	0.077	0.0862	0.0962	0.1047	0.115	0.1247
c1 = 0.01071	0.0751	0.085	0.095	0.106	0.116	0.127	0.137
c1 = 0.01177	0.0818	0.0926	0.1035	0.115	0.126	0.139	0.15
c1 = 0.01279	0.0884	0.1	0.1116	0.1245	0.136	0.149	0.1607
c1 = 0.01379	0.0946	0.107	0.119	0.1325	0.1445	0.159	0.173
c1 = 0.01477	0.0997	0.1119	0.1243	0.138	0.1513	0.167	0.1822
c1 = 0.01573	0.1033	0.115	0.128	0.1426	0.156	0.1726	0.189
c1 = 0.01667	0.106	0.118	0.1315	0.146	0.1607	0.178	0.196
c1 = 0.01758	0.108	0.121	0.1345	0.15	0.165	0.1821	0.2
c1 = 0.01848	0.1105	0.1235	0.137	0.1528	0.169	0.186	0.206
c1 = 0.01936	0.1125	0.126	0.1401	0.156	0.1721	0.1911	0.211
c1 = 0.02021	0.1144	0.128	0.1427	0.159	0.175	0.195	0.215
c1 = 0.02105	0.116	0.1303	0.145	0.1616	0.179	0.199	0.22
c1 = 0.02188	0.118	0.1324	0.148	0.1645	0.1821	0.202	0.224
c1 = 0.02268	0.12	0.1344	0.15	0.167	0.185	0.206	0.228
c1 = 0.02347	0.1215	0.136	0.1524	0.17	0.189	0.209	0.232
c1 = 0.02424	0.1231	0.138	0.1546	0.1723	0.1916	0.213	0.236
c1 = 0.025	0.125	0.1403	0.157	0.175	0.1946	0.216	0.24

CCCCCCCCCCCC[N+](C)(C)C.[Br-] [dodecyltrimethylammonium bromide] + O
electrical conductivity [S/m]
Details	288.15 K	293.15 K	298.15 K	303.15 K	308.15 K	313.15 K	318.15 K
c1 = 0.001961	0.0157	0.0175	0.0196	0.0218	0.0238	0.0261	0.0279
c1 = 0.003846	0.0294	0.0332	0.0372	0.0411	0.045	0.0494	0.0531
c1 = 0.00566	0.0421	0.0478	0.0533	0.0592	0.0647	0.0711	0.076
c1 = 0.007407	0.0542	0.0614	0.0689	0.0762	0.0833	0.0914	0.0969
c1 = 0.009091	0.0654	0.0743	0.0833	0.0921	0.1007	0.1109	0.119
c1 = 0.01071	0.0762	0.0865	0.0964	0.107	0.117	0.129	0.139
c1 = 0.01228	0.0863	0.098	0.11	0.1218	0.1328	0.146	0.158
c1 = 0.01379	0.0954	0.109	0.1222	0.136	0.148	0.1623	0.175
c1 = 0.01525	0.105	0.119	0.1337	0.148	0.162	0.178	0.1919
c1 = 0.01667	0.1103	0.125	0.1405	0.157	0.1727	0.1907	0.206
c1 = 0.01758	0.1125	0.128	0.1433	0.1605	0.177	0.197	0.215
c1 = 0.01848	0.1143	0.13	0.146	0.1634	0.1807	0.201	0.222
c1 = 0.01936	0.116	0.1315	0.148	0.166	0.1837	0.205	0.226
c1 = 0.02021	0.117	0.1332	0.1501	0.168	0.187	0.209	0.23
c1 = 0.02105	0.119	0.135	0.1521	0.17	0.19	0.212	0.234
c1 = 0.02188	0.1203	0.137	0.154	0.172	0.1922	0.215	0.238
c1 = 0.02268	0.1216	0.138	0.156	0.1741	0.195	0.218	0.242
c1 = 0.02347	0.1229	0.14	0.158	0.176	0.198	0.22	0.246
c1 = 0.02424	0.1242	0.1411	0.159	0.178	0.2	0.223	0.249
c1 = 0.025	0.126	0.1425	0.161	0.1805	0.203	0.226	0.252
c1 = 0.02611	0.127	0.145	0.1636	0.1831	0.206	0.23	0.258
c1 = 0.02718	0.129	0.147	0.166	0.186	0.21	0.234	0.263
c1 = 0.02823	0.131	0.149	0.169	0.189	0.213	0.238	0.268
c1 = 0.02925	0.1327	0.151	0.171	0.1912	0.217	0.242	0.272
c1 = 0.03023	0.1344	0.1529	0.1733	0.1937	0.22	0.246	0.277
